Biological target: human TLR7 (Homo sapiens (Human), UniProt Q9NYK1)
Experiment: Test for evaluating the inhibition of the activation of human TLR7 (SEAP reporter, TLR7/NF-κB/SEAPorter HEK293 cell)
Type: cell-based
Conditions: R-848 200 nmol/L; for IC50: SEAP reporter; for inhibitory effect against TLR7 in the test for evaluating inhibition of the activation of TLR7: SEAP activity, result in words
Procedure, shortened: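 HEK293 cells stably expressing full-length human TLR7 and an NF-κB-driven SEAP reporter. They were grown in DMEM with 10% FBS and blasticidin, and seeded at 5×10^4 cells/well overnight at 37° C, 5% CO2. Inhibition of TLR7 activation was read as SEAP output.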

Chain of human TLR7 (Q9NYK1 27-1049): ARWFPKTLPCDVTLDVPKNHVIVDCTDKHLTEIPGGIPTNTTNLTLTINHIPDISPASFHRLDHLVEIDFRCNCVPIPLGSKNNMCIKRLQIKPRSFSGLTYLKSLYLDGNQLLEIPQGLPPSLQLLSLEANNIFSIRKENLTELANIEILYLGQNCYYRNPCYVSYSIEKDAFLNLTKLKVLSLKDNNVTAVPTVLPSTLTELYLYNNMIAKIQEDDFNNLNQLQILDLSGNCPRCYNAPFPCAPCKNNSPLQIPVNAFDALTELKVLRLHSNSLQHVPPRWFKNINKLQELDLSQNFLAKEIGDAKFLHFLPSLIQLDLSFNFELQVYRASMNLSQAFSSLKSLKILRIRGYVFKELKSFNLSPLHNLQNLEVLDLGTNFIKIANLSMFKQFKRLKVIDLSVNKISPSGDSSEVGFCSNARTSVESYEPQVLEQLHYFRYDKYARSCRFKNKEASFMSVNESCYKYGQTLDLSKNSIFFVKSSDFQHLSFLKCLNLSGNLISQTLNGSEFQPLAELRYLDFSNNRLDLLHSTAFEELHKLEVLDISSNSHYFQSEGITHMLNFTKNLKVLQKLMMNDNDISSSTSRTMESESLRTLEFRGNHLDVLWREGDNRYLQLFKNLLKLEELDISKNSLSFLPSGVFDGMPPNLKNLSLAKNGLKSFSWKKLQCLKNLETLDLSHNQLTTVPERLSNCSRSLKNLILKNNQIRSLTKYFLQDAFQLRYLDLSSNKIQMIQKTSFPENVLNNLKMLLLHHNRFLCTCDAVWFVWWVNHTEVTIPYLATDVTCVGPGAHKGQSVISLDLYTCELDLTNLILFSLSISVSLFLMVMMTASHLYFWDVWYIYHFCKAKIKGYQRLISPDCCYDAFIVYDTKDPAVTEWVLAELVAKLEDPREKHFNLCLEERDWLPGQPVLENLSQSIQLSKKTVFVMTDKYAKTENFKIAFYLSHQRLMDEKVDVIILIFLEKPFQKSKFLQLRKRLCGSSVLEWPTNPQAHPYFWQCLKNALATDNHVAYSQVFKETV

IC50 | inhibitory effect against TLR7 in the test for evaluating inhibition of the activation of TLR7 | SMILES
950 nM |  | CCOc1nc(N)c2nc(-c3cncc(F)c3)n(Cc3ccc(-c4cncc(F)c4)cc3)c2n1 [Example 45]
80 nM | potent inhibitory effect against TLR7 | CCOc1nc(N)c2nc(-c3cncc(F)c3)n(Cc3ccc(CN4C[C@@H]5C[C@H]4CO5)cc3)c2n1 [Example 96]
210 nM |  | CCOc1nc(C)c2nc(-c3cncc(F)c3)n(Cc3cnn(CC4CCNCC4)c3)c2n1 [Example 428]
56 nM | potent inhibitory effect against TLR7 | CCOc1nc(N)c2nc(-c3cncc(F)c3)n(Cc3ccc(CN4CC(F)(F)C4)cc3)c2n1 [Example 101]
5800 nM |  | CN(C)Cc1ccc(Cn2c(-c3cncc(F)c3)nc3c(N)nc(N4CCC4)nc32)cc1 [Example 153]
3500 nM |  | COCCOc1nc(N)c2nc(-c3cncc(F)c3)n(Cc3ccccc3)c2n1 [Example 25]
660 nM |  | CCOc1nc(N)c2nc(-c3cncc(F)c3)n(Cc3ccc(OCCN(C)C)cn3)c2n1 [Example 56]
73 nM | potent inhibitory effect against TLR7 | COc1nc(C)c2nc(-c3cncc(F)c3)n(Cc3ccc(OCCCN(C)C)cc3F)c2n1 [Example 421]
1400 nM |  | CCCCOc1nc(N)c2nc(-c3cncnc3)n(Cc3ccccc3)c2n1 [Example 5]
1520 nM |  | CCOc1nc(C)c2nc(-c3cncc(F)c3)n(Cc3ccc(Br)cc3OC)c2n1 [Example 325]
5 nM | potent inhibitory effect against TLR7 | CCOc1nc(C)c2nc(-c3cncc(F)c3)n(Cc3ccc(CN4C[C@H]5C[C@@H]4CN5C)cc3)c2n1 [Example 110, 2-ethoxy-8-(5-fluoropyridin-3-yl)-6-methyl-9-(4-{[(1R,4R)-5-methyl-2,5-diazabicyclo[2.2.1]hept-2-yl]methyl}benzyl)-9H-purine]
8600 nM |  | COCCOc1nc(N)c2nc(-c3cnc4ccccc4c3)n(Cc3ccc(CN(C)C)cc3)c2n1 [Example 32]
19700 nM |  | COCCOc1nc(N)c2nc(-c3cncc(S(C)(=O)=O)c3)n(Cc3ccc(CN(C)C)cc3)c2n1 [Example 181]
16 nM | potent inhibitory effect against TLR7 | CCOc1nc(N)c2nc(-c3cncc(F)c3)n(Cc3ccc(C4CCN(C(=O)CN(C)C)CC4)cc3)c2n1 [Example 148, 1-[4-(4-{[6-Amino-2-ethoxy-8-(5-fluoropyridin-3-yl)-9H-purin-9-yl]methyl}phenyl)piperidin-1-yl]-2-(dimethylamino)ethanone]
3500 nM |  | CCCCOc1nc(C)c2nc(-c3cncc(F)c3)n(Cc3ccc(CO)cc3)c2n1 [Example 79]
40 nM | potent inhibitory effect against TLR7 | CCOc1nc(C)c2nc(-c3cncc(F)c3)n(Cc3cnn(CC4CCN(C)C4)c3)c2n1 (stereo not drawn) [Example 279]
102 nM |  | CCOc1nc(C)c2nc(-c3cncc(F)c3)n(Cc3ccc(CN4CCCC4)cc3)c2n1 [Example 263]
520 nM |  | CCOc1nc(N)c2nc(-c3cncc(F)c3)n(Cc3ccc(O[C@@H]4CCN(C)C4)nc3)c2n1 [Example 38]
43 nM | potent inhibitory effect against TLR7 | CCOc1nc(N)c2nc(-c3cncc(F)c3)n(Cc3ccc(CN4C[C@@H]5C[C@H]4CN5C4CC4)cc3)c2n1 [Example 130]
2100 nM |  | CCOc1nc(N)c2nc(-c3cncc(F)c3)n(Cc3ccc(C(=O)NCCN(C)C)cc3)c2n1 [Example 145]
7700 nM |  | COCCOc1nc(N)c2nc(-c3cncc(C#N)c3)n(Cc3ccc(CN(C)C)cc3)c2n1 [Example 31]

Continued, molecule first:

SMILES | IC50 | inhibitory effect against TLR7 in the test for evaluating inhibition of the activation of TLR7
CCCCOc1nc(N)c2nc(-c3ccccc3)n(Cc3ccccc3)c2n1 [Example 11] | 10900 nM | 
CCN1CCC(c2ccc(Cn3c(-c4cncc(F)c4)nc4c(C)nc(OC)nc43)c(F)c2)C1 (stereo not drawn) [Example 291, 9-[4-(1-ethylpyrrolidin-3-yl)-2-fluorobenzyl]-8-(5-fluoropyridin-3-yl)-2-methoxy-6-methyl-9H-purine] | 17 nM | potent inhibitory effect against TLR7
COc1nc(C)c2nc(-c3cncc(F)c3)n(Cc3ccc(C4CCN(C)CC4)cc3F)c2n1 [Example 282, 9-[2-fluoro-4-(1-methylpiperidin-4-yl)benzyl]-8-(5-fluoropyridin-3-yl)-2-methoxy-6-methyl-9H-purine] | 8 nM | potent inhibitory effect against TLR7
CCOc1nc(C)c2nc(-c3cncc(F)c3)n(Cc3cnc(C4CN5CCC4CC5)cc3OC)c2n1 (stereo not drawn) [Example 374] | 1630 nM | 
COc1nc(C)c2nc(-c3cncc(C#N)c3)n(Cc3ccc(C4CN5CCC4CC5)cc3F)c2n1 (single isomer, unassigned) [Example 403, 5-{9-[4-(1-azabicyclo[2.2.2]oct-3-yl)-2-fluorobenzyl]-2-methoxy-6-methyl-9H-purin-8-yl}pyridine-3-carbonitrile] | 21 nM | potent inhibitory effect against TLR7
CCOc1nc(N)c2nc(-c3cncc(F)c3)n(Cc3ccc([C@H]4CN5CCC4CC5)cc3)c2n1 [Example 176, 9-{4-[(3S)-1-azabicyclo[2.2.2]oct-3-yl]benzyl}-2-ethoxy-8-(5-fluoropyridin-3-yl)-9H-purine-6-amine] | 11 nM | potent inhibitory effect against TLR7
CCCN1C[C@@H]2C[C@H]1CN2Cc1ccc(Cn2c(-c3cncc(F)c3)nc3c(C)nc(OC)nc32)cc1 [Example 133, 8-(5-fluoropyridin-3-yl)-2-methoxy-6-methyl-9-(4-{[(1S,4S)-5-propyl-2,5-diazabicyclo[2.2.1]hept-2-yl]methyl}benzyl)-9H-purine] | 13 nM | potent inhibitory effect against TLR7
COc1nc(C)c2nc(-c3cncc(F)c3)n(Cc3ccc(C4CN5CCC4CC5)cc3)c2n1 (stereo not drawn) [Example 165, 9-[4-(1-Azabicyclo[2.2.2]oct-3-yl)benzyl]-8-(5-fluoropyridin-3-yl)-2-methoxy-6-methyl-9H-purine] | 16 nM | potent inhibitory effect against TLR7
COc1nc(C)c2nc(-c3cncc(F)c3)n(Cc3ccc(O[C@H]4CCN(C)C4)cc3F)c2n1 [Example 414, 9-(2-fluoro-4-{[(3S)-1-methylpyrrolidin-3-yl]oxy}benzyl)-8-(5-fluoropyridin-3-yl)-2-methoxy-6-methyl-9H-purine] | 16 nM | potent inhibitory effect against TLR7
CCOc1nc(N)c2nc(-c3cncc(F)c3)n(Cc3ccc(O[C@@H]4CN5CCC4CC5)nc3)c2n1 [Example 40] | 120 nM | 
COc1nc(C)c2nc(-c3cncc(F)c3)n(Cc3ccc(O[C@@H]4CN5CCC4CC5)cc3F)c2n1 [Example 412, 9-{4-[(3S)-1-azabicyclo[2.2.2]oct-3-yloxy]-2-fluorobenzyl}-8-(5-fluoropyridin-3-yl)-2-methoxy-6-methyl-9H-purine] | 5 nM | potent inhibitory effect against TLR7
CCCOc1nc(C)c2nc(-c3cncc(F)c3)n(Cc3ccc(O[C@@H]4CN5CCC4CC5)nc3)c2n1 [Example 75] | 200 nM | 
CCOc1nc(C)c2nc(-c3cncc(C#N)c3)n(Cc3ccc(CN4C[C@@H]5C[C@H]4CN5C)cc3F)c2n1 [Example 311, 5-[2-ethoxy-9-(2-fluoro-4-{[(1S,4S)-5-methyl-2,5-diazabicyclo[2.2.1]hept-2-yl]methyl}benzyl)-6-methyl-9H-purin-8-yl]pyridine-3-carbonitrile] | 11 nM | potent inhibitory effect against TLR7
COc1nc(C)c2nc(-c3cccnc3)n(Cc3ccc(C4CCN(C)CC4)cc3F)c2n1 [Example 292, 9-[2-fluoro-4-(1-methylpiperidin-4-yl)benzyl]-2-methoxy-6-methyl-8-(pyridin-3-yl)-9H-purine] | 39 nM | potent inhibitory effect against TLR7
COc1nc(C)c2nc(-c3ccncc3)n(Cc3ccc(C4CN5CCC4CC5)cc3F)c2n1 (stereo not drawn) [Example 347] | 35 nM | potent inhibitory effect against TLR7
CCCCOc1nc(N)c2nc(-c3ccoc3)n(Cc3ccccc3)c2n1 [Example 7] | 7800 nM | 
COc1nc(C)c2nc(-c3cccnc3)n(Cc3ccc(C4CN5CCC4CC5)c(F)c3)c2n1 (stereo not drawn) [Example 380] | 225 nM | 
CCOc1nc(C)c2nc(-c3cncc(F)c3)n(Cc3ccc(C4CN5CCC4CC5)cn3)c2n1 (stereo not drawn) [Example 370, 9-{[5-(1-Azabicyclo[2.2.2]oct-3-yl)pyridin-2-yl]methyl}-2-ethoxy-8-(5-fluoropyridin-3-yl)-6-methyl-9H-purine] | 117 nM | 
COc1nc(C)c2nc(-c3cncnc3)n(Cc3ccc([C@H]4CN5CCC4CC5)cc3F)c2n1 [Example 445, 9-{4-[(3S)-1-azabicyclo[2.2.2]oct-3-yl]-2-fluorobenzyl}-2-methoxy-6-methyl-8-(pyrimidin-5-yl)-9H-purine] | 21 nM | potent inhibitory effect against TLR7
CCCCOc1nc(N)c2nc(-c3cncc(F)c3)n(Cc3ccccc3)c2n1 [Example 1, 9-Benzyl-2-butoxy-8-(5-fluoropyridin-3-yl)-9H-purine-6-amine] | 2300 nM | 
CCCCNc1nc(N)c2nc(-c3cncc(OC)c3)n(Cc3ccccc3)c2n1 [Example 26] | 18700 nM | 
COc1nc(C)c2nc(-c3cncc(C#N)c3)n(Cc3ccc(C4CN5CCC4CC5)cc3F)c2n1 (stereo not drawn) [Example 340] | 26 nM | potent inhibitory effect against TLR7

Source: US10703755B2, “Substituted purine derivative” (SUMITOMO DAINIPPON PHARMA CO., LTD., priority 2016, dated 2020)
